This is an account of results in US11352316B2, “Opioid receptor modulators and products and methods related thereto” (priority 2018, dated 2022).

Structures are written as SMILES.

In one experiment the test system is Male Sprague-Dawley rats. In words: Hot plate assay. Format: in vivo. The note with it: rat, SC. On the procedure:
Male Sprague-Dawley rats weighing 275-300 grams were used in the study, n=8-10 per group. Animals are injected SC with 0.9% normal saline solution. At 15, 45, and 80 min after the injection, animals were placed onto a hotplate set to 52 degrees centigrade, and baseline latency is recorded (baseline latency=average time to 2nd withdrawal response consisting of either a lick of a rear paw, shaking a rear paw, backwards walking or jumping). A day later animals were injected SC with test compounds either in vehicle solution, or with a mix of compounds in solution. Next the test latency was recorded (test latency=time to withdrawal on the hotplate measured at 15, 45, 80, 120, 180 and 240 min using the procedure described). Times were then converted to % maximum possible effect (% MPE)=(test_latecy−baseline_latency)/(30 sec−baseline_latency); where 30 sec is the cutoff where the animal is removed if no response ifs observed as it is the time point at which injury is expected to occur.
(In general: Hot-plate and tail-flick tests time the reaction to a heat stimulus.)

The next experiment deals with T1, mu opioid receptor (MOR) (Homo sapiens, UniProt P35372).
T1 construct: host or cells: CHO-K1
In words: MOR GTPγS agonist assay (membranes, SPA beads). The format is biochemical. The following applies: membranes of CHO-K1 cells over-expressing MOR. The source says: Membranes obtained from the stable cell lines over-expressing MOR were subjected to GTPγS assay using SPA beads (Perkin Elmer, Cat #RPNQ0001).

T1 sequence (P35372 whole entry): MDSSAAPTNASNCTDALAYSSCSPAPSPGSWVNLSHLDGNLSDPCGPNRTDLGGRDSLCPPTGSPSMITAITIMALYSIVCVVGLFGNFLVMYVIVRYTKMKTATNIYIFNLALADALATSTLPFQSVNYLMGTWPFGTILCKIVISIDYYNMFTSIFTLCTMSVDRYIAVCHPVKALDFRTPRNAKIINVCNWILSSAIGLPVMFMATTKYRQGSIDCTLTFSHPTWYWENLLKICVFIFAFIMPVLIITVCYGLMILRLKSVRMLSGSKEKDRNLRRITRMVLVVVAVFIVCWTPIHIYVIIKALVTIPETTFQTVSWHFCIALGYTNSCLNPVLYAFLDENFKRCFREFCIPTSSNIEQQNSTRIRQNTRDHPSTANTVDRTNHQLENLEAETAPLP

As to `Cc1cc(O)ccc1C[C@@H](CNC(=O)[C@@H]1C[C@@]1(C)c1ccccc1)N(C)C` [Compound B-56, (1R,2R)—N—((S)-2-(dimethylamino)-3-(4-hydroxy-2-methylphenyl)propyl)-2-methyl-2-phenylcyclopropane-1-carboxamide], the “analgesic activity in the hotplate test (time to withdrawal response, % MPE)” value in the experiment with Male Sprague-Dawley rats (hotplate 52 degrees centigrade, FIG. 1) is listed as “analgesic”. In the case of `CN(C)[C@H](CNC(=O)[C@@H]1C[C@]1(C)c1ccccc1)Cc1ccc(O)cc1Cl` [Compound B-15, (1R,2S)—N—((S)-3-(2-chloro-4-hydroxyphenyl)-2-(dimethylamino)propyl)-2-methyl-2-phenylcyclopropane-1-carboxamide], the “effect on the analgesic activity of agonist Compound B-56 in the hotplate test” value in the experiment with Male Sprague-Dawley rats (co-dosed with Compound B-56, FIG. 1) was “blocks in vivo the analgesic activity of the agonist Compound B-56”. For the same compound, in the experiment on Male Sprague-Dawley rats (dosed alone, FIG. 1), the “effect on its own in the hotplate test” value is “no effect on its own”.

`CNC(=O)c1ccc(C[C@@H](CNC(=O)c2ccc(Cl)cc2Cl)N(C)C)cc1F` [Compound C-37, (S)-2,4-dichloro-N-(2-(dimethylamino)-3-(3-fluoro-4-(methylcarbamoyl)phenyl)propyl) benzamide]: at mu opioid receptor (MOR), the EC50 (as a rule, the concentration giving half of the maximal effect) is less than 100 nM.

On mu opioid receptor (MOR), `CNC(=O)c1cc(C)c(C[C@@H](CNC(=O)c2ccccc2OC)N(C)C)c(C)c1` [Compound C-68, (S)-4-(2-(dimethylamino)-3-(2-methoxybenzamido)propyl)-N,3,5-trimethylbenzamide] yielded an EC50 of less than 100 nM.
